Data taken from PubChem BioAssay (NCI).
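Cells were grown in 96-well plates and exposed to each compound for 48 hours at five concentrations; endpoints were interpolated linearly between bracketing concentrations, or set to the highest concentration if not reached. TGI: total growth inhibition.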

How the values were obtained:
Assay in all cases: growth of human tumour cells (NCI), 48 h
MALME-3M melanoma = system: MALME-3M melanoma
BT-549 breast = system: BT-549 breast
NCI/ADR-RES ovarian = system: NCI/ADR-RES ovarian
SNB-75 CNS = system: SNB-75 CNS
IGROV1 ovarian = system: IGROV1 ovarian
UACC-257 melanoma = system: UACC-257 melanoma
HCC-2998 colon = system: HCC-2998 colon
HCT-116 colon = system: HCT-116 colon
NCI-H522 lung = system: NCI-H522 lung
A498 renal = system: A498 renal
MDA-MB-231 breast = system: MDA-MB-231 breast
SF-295 CNS = system: SF-295 CNS
SN12C renal = system: SN12C renal
KM12 colon = system: KM12 colon
TK-10 renal = system: TK-10 renal
SK-MEL-5 melanoma = system: SK-MEL-5 melanoma
OVCAR-5 ovarian = system: OVCAR-5 ovarian
EKVX NSCLC = system: EKVX NSCLC
LOX IMVI melanoma = system: LOX IMVI melanoma
SNB-19 CNS = system: SNB-19 CNS

Structure (SMILES)	TGI (MALME-3M melanoma) [µM]	TGI (BT-549 breast) [µM]	TGI (NCI/ADR-RES ovarian) [µM]	TGI (SNB-75 CNS) [µM]	TGI (IGROV1 ovarian) [µM]	TGI (UACC-257 melanoma) [µM]	TGI (HCC-2998 colon) [µM]	TGI (HCT-116 colon) [µM]	TGI (NCI-H522 lung) [µM]	TGI (A498 renal) [µM]	TGI (MDA-MB-231 breast) [µM]	TGI (SF-295 CNS) [µM]	TGI (SN12C renal) [µM]	TGI (KM12 colon) [µM]	TGI (TK-10 renal) [µM]	TGI (SK-MEL-5 melanoma) [µM]	TGI (OVCAR-5 ovarian) [µM]	TGI (EKVX NSCLC) [µM]	TGI (LOX IMVI melanoma) [µM]	TGI (SNB-19 CNS) [µM]
CN(C)c1ccc(C2CC(c3ccc4ccccc4c3O)=NN2)cc1 (centres undefined)	> 100	> 100	> 100	> 100	> 100	> 100	> 100	> 100	85.5	66.8	> 100	> 100	> 100	> 100	> 100	> 100	> 100			
N#Cc1cccc2c1Sc1ccccc1N2	> 100	79.8	> 100	3.15	> 100	> 100	> 100	> 100		58.3	> 100	69.1	> 100	> 100	75.8	1.72	72.8	97.4	36.5	> 100
C=CCC1(O)CC(n2cc(C)c(=O)[nH]c2=O)OC1CO[Si](C)(C)C(C)(C)C (centres undefined)		> 100	> 100	> 100	> 100	> 100	> 100	> 100		> 100	> 100	> 100	> 100	> 100		> 100	> 100	> 100	89.6	> 100
CC(=O)c1cccc(Nc2nc3ccccc3c3occc23)c1	53	39.6	> 100	45.2		> 100	> 100	50		30.5	56.4	48.4	45.6	> 100	38.5	48.6	> 100	> 100	> 100	60.9
COc1c2c(cc3c1C(=O)c1c(O)cccc1C3=O)CC(O)CC2 (centres undefined)	> 100	43.1	> 100	> 100	> 100	> 100	> 100	> 100		> 100	51.9	46.5	> 100	> 100	> 100	> 100	> 100	> 100	> 100	57.1
O=c1cc(-c2cccc(O)c2)[nH]c2cc3c(cc12)OCO3	> 100	> 100	4	20.5	> 100	> 100	> 100	> 100	0.951	> 100	22.1	> 100	> 78	> 100	> 100	5.01	> 100		> 100	> 49.6
c1ccc(C(C2=Nc3cccc4cccc(c34)N2)c2ccccc2)cc1	73.3	61.4	50.5	72.4	> 100	68	37.8		36.3		> 100	42.8	30.2	49.6	> 100	38.2		80.7	37.3	> 100
Cc1cccc2oc3c(CC(=O)O)cccc3c(=O)c12	> 100	> 100	> 100		> 100	> 100	40.9	> 100	> 100	> 100	> 100	> 100	> 100	> 100	> 100	> 100		> 100	> 100	> 100
COc1ccc2c(c1)CC[C@@H]1[C@@H]2CC[C@]2(C)C(=O)/C(=C/c3ccc(N(C)C)cc3)C[C@@H]12	> 100	70.6	> 100	52.3			> 100	> 100		> 100	> 100	> 100		> 100	96.9	> 100	> 100	> 100		> 100
Nn1c(CCCCCCCCc2nnc(COc3ccc(Cl)cc3Cl)n2N)nnc1COc1ccc(Cl)cc1Cl	> 100	> 100	> 100		66	> 100	> 100	86.8	59.7	> 100	> 100		> 100	> 100	> 100	> 100	> 100	> 100		> 100
Cc1ccc(Cc2n[nH]c(=O)[nH]2)cc1	> 100	> 100	> 100	> 100	> 100	> 100	> 100	> 100		> 100	> 100	> 100	> 100	> 100	> 100	> 100	> 100	> 100	> 100	> 100
O=C1NC(N/N=C/c2ccccc2)=N/C1=C\c1ccco1	> 100	70.6	> 100	> 100	57.4	> 100	> 100	> 100	95.2	> 100	> 100	> 100	> 100	> 100	92.3	> 100	> 100	> 100		> 100
CCCN(CCC)CCc1ccc(OC2=CCN(C)CC2)cc1	32.4	> 100	> 100		> 100	43.9	> 100	> 100	67		> 100	> 100	> 100	> 100	> 100	> 100	> 100	> 100	89.8	> 100
C/C(=C\CO)CC/C=C(\C)CNc1c(F)c(F)c(F)c(F)c1F	57.2	22.3	86.2	66.3	> 100	47.4	59.8	> 100	46.3		40.5	52.9	41.2	77.5	85.7	31.9	> 100	98.3	80.8	75
O=C(NC(=S)Nc1ccc(Br)cc1)c1ccc2c(c1)Sc1ccccc1S2	48.5	60.6	55.9	29.2	30.2	54.5		51	52.6	36.8	38.2	38.6	38.4	74.8	30.9	> 100	40.2		61.4	54.4
CSCCCN(CCCSC)CCCSC		> 100	> 100	> 100	> 100	> 100	> 100	> 100	> 100		> 100	> 100	> 100	> 100		> 100	> 100	> 100	> 100	> 100
CC(=O)Oc1c(C)c2c(c3ncccc13)OC(C)C2 (centres undefined)	30.2	35.6	35.9	28	20.1	28.6	28.7	32.3	15.4	58.3	26.2	28.5	30.1	28.7	49.2	27.5	31	30.8		> 100
Cc1ccc2c(c1)[nH]c(=S)n2C=C(C(N)=O)C(N)=O		> 100	> 100	> 100	> 100	> 100	> 100	> 100		> 100	> 100	> 100	> 100	> 100	> 100	> 100	> 100	> 100	> 100	> 100
Cc1ccc(N=N/C(=N/NC(=O)c2cc(Cl)ccc2O)c2ccc(N(CCC#N)CCC#N)cc2C)cc1	47.8	88.7	> 100	86.8	> 100	47.2	68.5	54.4	31.4	49.5	> 100	83.3	85.6	> 100	87.2	36.4	> 100	> 100		> 100
C1=CC2(C=CC13O[C@H](C1CCCCC1)[C@@H](C1CCCCC1)O3)O[C@H](C1CCCCC1)[C@@H](C1CCCCC1)O2	> 50	> 50	> 50	> 50	> 50	> 50		> 50		> 50	> 50	> 50	> 50	> 50	> 50	> 50	> 50		> 50	> 50
